{"source": "patent US8202885B2", "about": "“Bridged six-membered ring compounds” (Actelion Pharmaceuticals Ltd., priority 2007, dated 2012)", "data": [{"test_system": "human Cav3.1 Cav3.2 or Cav3.3 channel", "test": "In vitro assay T channel (FLIPR calcium fluorescence)", "format": "cell-based", "conditions": "HEK293 cells expressing human Cav3.1, Cav3.2 or Cav3.3; 10 mM Ca2+-induced fluo-4 fluorescence; determined up to 10 μM; read-out: T channel antagonistic activity IC50", "summary_of_the_method": "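HEK293 cells stably expressing human Cav3.1, Cav3.2 or Cav3.3 loaded with fluo-4 AM (3 μM), preincubated 3 min with antagonist, then stimulated with 10 mM Ca2+ in TEA-chloride/HEPES buffer pH 7.2. FLIPR fluorescence read every 2 s for 8 min; IC50 from peak area versus vehicle, tested up to 10 μM.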", "units": {"IC50": "µM"}, "values": [{"compound": "COC(=O)c1cccc2[nH]c(CCCN(C)CC[C@]3(OC(=O)C(C)C)C[C@H]4CC[C@@H]3C=C4c3ccccc3)nc12", "note": "(relative stereo) [Example 19A, rac-2-(3-{[2-((1R*,2R*,4R*)-2-Isobutyryloxy-5-phenyl-bicyclo[2.2.2]oct-5-en-2-yl)-ethyl]-methyl-amino}-propyl)-1H-benzoimidazole-4-carboxylic acid methyl ester]", "IC50": 1.71}, {"compound": "CC(C)C(=O)O[C@@]1(CCN(C)CCCc2nc3c(C(F)(F)F)cc(C(F)(F)F)cc3[nH]2)C[C@H]2CC[C@@H]1C=C2c1ccccc1", "note": "(relative stereo) [Example 62A, rac-Isobutyric acid (1R*,2R*,4R*)-2-(2-{[3-(4,6-bis-trifluoromethyl-1H-benzoimidazol-2-yl)-propyl]-methyl-amino}-ethyl)-5-phenyl-bicyclo[2.2.2]oct-5-en-2-yl ester]", "IC50": 0.469}, {"compound": "CC(C)C(=O)OC1(CCN(C)CCCc2nc3ccccc3[nH]2)CC2CCC1C1=C2CCc2ccccc21", "note": "(racemic) [Example 18A, rac-Isobutyric acid (1R*,3R*,4R*)-1,2,3,4,9,10-hexahydro-3-hydroxy-3-{N-methyl-N-(3-benzimidazol-2-ylpropyl)aminoethyl}-1,4-ethanophenanthrene ester]", "IC50": 2.05}, {"compound": "COc1ccc(C2=CC3CCC2CC3(O)CCN(C)CCCc2nc3ccccc3[nH]2)cc1", "note": "(racemic) [Example 22, rac-(1R*,2R*,4R*)-2-(2-{[3-(1H-Benzoimidazol-2-yl)-propyl]-methyl-amino}-ethyl)-5-(4-methoxy-phenyl)-2-yl-bicyclo[2.2.2]oct-5-en-2-ol]", "IC50": "> 10"}, {"compound": "COc1cccc2[nH]c(CCCN(C)CC[C@]3(OC(=O)CC(F)(F)F)C[C@H]4CCC[C@@H]3C=C4c3ccccc3)nc12", "note": "(relative stereo) [Example 36B, rac-3,3,3-Trifluoro-propionic acid (1R*,5R*,6R*)-6-(2-{[3-(4-methoxy-1H-benzoimidazol-2-yl)-propyl]-methyl-amino}-ethyl)-8-phenyl-bicyclo[3.2.2]non-8-en-6-yl ester]", "IC50": 2.45}, {"compound": "COc1cccc2[nH]c(CCCN(C)CC[C@]3(OC(=O)NC(C)C)C[C@H]4CC[C@@H]3C=C4c3ccccc3)nc12", "note": "(relative stereo) [Example 26E, rac-Isopropyl-carbamic acid (1R*,2R*,4R*)-2-(2-{[3-(4-methoxy-1H-benzoimidazol-2-yl)-propyl]-methyl-amino}-ethyl)-5-phenyl-bicyclo[2.2.2]oct-5-en-2-yl ester]", "IC50": 1.11}, {"compound": "CN(CCCc1nc2ccccc2[nH]1)CC[C@]1(O)C[C@H]2CC[C@@H]1C=C2c1ccc2ccccc2c1", "note": "(relative stereo) [Example 10, rac-(1R*,2R*,4R*)-2-(2-{[3-(1H-Benzoimidazol-2-yl)-propyl]-methyl-amino}-ethyl)-5-naphthalen-2-yl-bicyclo[2.2.2]oct-5-en-2-ol]", "IC50": 5.87}, {"compound": "CN(CCCc1ccccc1)CC[C@]1(O)C[C@H]2CC[C@@H]1C=C2c1ccccc1", "note": "(relative stereo) [Example 15, rac-(1R*,2R*,4R*)-2-{2-[Methyl-(3-phenyl-propyl)-amino]-ethyl}-5-phenyl-bicyclo[2.2.2]oct-5-en-2-ol]", "IC50": "> 10"}, {"compound": "CC(C)C(=O)O[C@@]1(CCN(C)CCCc2nc3ccccc3[nH]2)C[C@H]2CC[C@@H]1C=C2c1ccccc1", "note": "(relative stereo) [Example 1A, rac-Isobutyric acid (1R*,2R*,4R*)-2-(2-{[3-(1H-Benzoimidazol-2-yl)-propyl]-methyl-amino}-ethyl)-5-phenyl-bicyclo[2.2.2]oct-5-en-2-yl ester]", "IC50": 4.94}, {"compound": "COc1ccc(OC)c2[nH]c(CCCN(C)CCC3(OC(=O)C(C)C)CC4CCC3C=C4c3ccccc3)nc12", "note": "[Example 67A, Isobutyric acid (1R,2R,4R)-2-(2-{[3-(4,7-dimethoxy-1H-benzoimidazol-2-yl)-propyl]-methyl-amino}-ethyl)-5-phenyl-bicyclo[2.2.2]oct-5-en-2-yl ester or Isobutyric acid (1S,2S,4S)-2-(2-{[3-(4,7-dimethoxy-1H-benzoimidazol-2-yl)-propyl]-methyl-amino}-ethyl)-5-phenyl-bicyclo[2.2.2]oct-5-en-2-yl ester]", "IC50": 0.778}, {"compound": "CO[C@]1(c2ccccc2)C[C@H]2CC[C@@H]1C[C@@]2(O)CCN(C)CCCc1nc2ccccc2[nH]1", "note": "(relative stereo) [Example 76, rac-(1R*,2R*,4R*,5R*)-2-(2-{[3-(1H-Benzoimidazol-2-yl)-propyl]-methyl-amino}-ethyl)-5-methoxy-5-phenyl-bicyclo[2.2.2]octan-2-ol]", "IC50": "> 10"}, {"compound": "CC1=C(c2ccccc2)[C@H]2CC[C@@H]1C[C@@]2(O)CCN(C)CCCc1nc2ccccc2[nH]1", "note": "(relative stereo) [Example 17, rac-(1R*,2R*,4R*)-2-(2-{[3-(1H-Benzoimidazol-2-yl)-propyl]-methyl-amino}-ethyl)-5-methyl-6-phenyl-bicyclo[2.2.2]oct-5-en-2-ol]", "IC50": 1.26}, {"compound": "COc1ccc(OC)c2[nH]c(CCCN(C)CC[C@]3(OC(=O)C(C)C)C[C@H]4CCC[C@@H]3C=C4c3ccccc3)nc12", "note": "(relative stereo) [Example 69A, rac-Isobutyric acid (1R*,5R*,6R*)-6-(2-{[3-(4,7-dimethoxy-1H-benzoimidazol-2-yl)-propyl]-methyl-amino}-ethyl)-8-phenyl-bicyclo[3.2.2]non-8-en-6-yl ester]", "IC50": 0.727}, {"compound": "CC(C)C(=O)O[C@@]1(CCN(C)CCCc2nc3cccc(O)c3[nH]2)C[C@H]2CC[C@@H]1C=C2c1ccccc1", "note": "(relative stereo) [Example 35A, rac-Isobutyric acid (1R*,2R*,4R*)-2-(2-{[3-(7-hydroxy-1H-benzoimidazol-2-yl)-propyl]-methyl-amino}-ethyl)-5-phenyl-bicyclo[2.2.2]oct-5-en-2-yl ester]", "IC50": 1.33}, {"compound": "CC(C)C(=O)O[C@@]1(CCN(C)CCCc2nc3ccccc3[nH]2)C[C@H]2CC[C@@H]1C=C2c1nccs1", "note": "(relative stereo) [Example 24A, rac-Isobutyric acid (1R*,2R*,4R*)-2-(2-{[3-(1H-benzoimidazol-2-yl)-propyl]-methyl-amino}-ethyl)-5-thiazol-2-yl-bicyclo[2.2.2]oct-5-en-2-yl ester]", "IC50": 2.75}, {"compound": "COc1cc(OC)c2nc(CCCN(C)CC[C@]3(OC(=O)C(C)C)C[C@H]4CC[C@@H]3C=C4c3ccccc3)[nH]c2c1", "note": "(relative stereo) [Example 59A, rac-Isobutyric acid (1R*,2R*,4R*)-2-(2-{[3-(4,6-dimethoxy-1H-benzoimidazol-2-yl)-propyl]-methyl-amino}-ethyl)-5-phenyl-bicyclo[2.2.2]oct-5-en-2-yl ester]", "IC50": 0.952}, {"compound": "CN(CCCc1nc2ccccc2[nH]1)CCC1(O)CC2CCC1C=C2c1ccccc1", "note": "(single isomer, unassigned) [Example 11, (1R,2R,4R)-2-(2-{[3-(1H-Benzoimidazol-2-yl)-propyl]-methyl-amino}-ethyl)-5-phenyl-bicyclo[2.2.2]oct-5-en-2-ol or (1S,2S,4S)-2-(2-{[3-(1H-benzoimidazol-2-yl)-propyl]-methyl-amino}-ethyl)-5-phenyl-bicyclo[2.2.2]oct-5-en-2-ol]", "IC50": "> 10"}, {"compound": "COc1cccc2[nH]c(CCCN(C)CC[C@]3(OC(=O)C4CCC4)C[C@H]4CC[C@@H]3C=C4c3ccccc3)nc12", "note": "(relative stereo) [Example 26B, rac-Cyclobutanecarboxylic acid (1R*,2R*,4R*)-2-(2-{[3-(4-methoxy-1H-benzoimidazol-2-yl)-propyl]-methyl-amino}-ethyl)-5-phenyl-bicyclo[2.2.2]oct-5-en-2-yl ester]", "IC50": "> 10"}, {"compound": "Cc1cc2cc(CCCN(C)CC[C@]3(OC(=O)C(C)C)C[C@H]4CC[C@@H]3C=C4c3ccccc3)cnc2o1", "note": "(relative stereo) [Example 42A, rac-Isobutyric acid (1R*,2R*,4R*)-2-(2-{methyl-[3-(2-methyl-furo[2,3-b]pyridin-5-yl)-propyl]-amino}-ethyl)-5-phenyl-bicyclo[2.2.2]oct-5-en-2-yl ester]", "IC50": "> 10"}, {"compound": "CCOc1ccc(CCCN(C)CC[C@]2(OC(=O)C(C)C)C[C@H]3CC[C@@H]2C=C3c2ccccc2)cc1OCC", "note": "(relative stereo) [Example 40A, rac-Isobutyric acid (1R*,2R*,4R*)-2-(2-{[3-(3,4-diethoxy-phenyl)-propyl]-methyl-amino}-ethyl)-5-phenyl-bicyclo[2.2.2]oct-5-en-2-yl ester]", "IC50": 8.93}, {"compound": "COc1ccc2[nH]c(CCCN(C)CC[C@]3(OC(=O)C(C)C)C[C@H]4CC[C@@H]3C=C4c3ccccc3)nc2c1", "note": "(relative stereo) [Example 29A, rac-Isobutyric acid (1R*,2R*,4R*)-2-(2-{[3-(5-methoxy-1H-benzoimidazol-2-yl)-propyl]-methyl-amino}-ethyl)-5-phenyl-bicyclo[2.2.2]oct-5-en-2-yl ester]", "IC50": 4.51}, {"compound": "COC(C)(C)C(=O)NCCCN(C)CC[C@]1(OC(=O)C(C)C)C[C@H]2CC[C@@H]1C=C2c1ccccc1", "note": "(relative stereo) [Example 44A, rac-Isobutyric acid (1R*,2R*,4R*)-2-(2-{[3-(2-methoxy-2-methyl-propionylamino)-propyl]-methyl-amino}-ethyl)-5-phenyl-bicyclo[2.2.2]oct-5-en-2-yl ester]", "IC50": "> 10"}, {"compound": "CC(C)C(=O)O[C@@]1(CCN(C)CCCc2nc3c(OC(F)(F)F)cccc3[nH]2)C[C@H]2CC[C@@H]1C=C2c1ccccc1", "note": "(relative stereo) [Example 68A, rac-Isobutyric acid (1R*,2R*,4R*)-2-(2-{methyl-[3-(4-trifluoromethoxy-1H-benzoimidazol-2-yl)-propyl]-amino}-ethyl)-5-phenyl-bicyclo[2.2.2]oct-5-en-2-yl ester]", "IC50": 0.839}, {"compound": "COc1ccc(C2=C[C@H]3CC[C@@H]2C[C@]3(CCN(C)CCCc2nc3ccccc3[nH]2)OC(=O)C(C)C)cc1", "note": "(relative stereo) [Example 22A, rac-Isobutyric acid (1R*,2R*,4R*)-2-(2-{[3-(1H-benzoimidazol-2-yl)-propyl]-methyl-amino}-ethyl)-5-(4-methoxy-phenyl)-bicyclo[2.2.2]oct-5-en-2-yl ester]", "IC50": 6.93}]}]}
